{
  "source": "patent US20210255193A1",
  "about": "“LYSINE REACTIVE PROBES AND USES THEREOF” (The Scripps Research Institute, priority 2017, published 2021)",
  "experiment_in_all_cases": "competitive isoTOP-ABPP",
  "type_in_all_cases": "binding",
  "key": {"[1]": {"target": "T1, PTGR1 Prostaglandin reductase 1 (Homo sapiens, UniProt Q14914)", "T1 construct": "isoTOP-ABPP experiments performed in cell lysates (in vitro); endogenous in cells; host or cells: soluble proteome of human cancer cell lines (MDA-MB-231; Ramos and Jurkat also prepared)", "T1 sequence (Q14914 whole entry, the tested form may be a part)": "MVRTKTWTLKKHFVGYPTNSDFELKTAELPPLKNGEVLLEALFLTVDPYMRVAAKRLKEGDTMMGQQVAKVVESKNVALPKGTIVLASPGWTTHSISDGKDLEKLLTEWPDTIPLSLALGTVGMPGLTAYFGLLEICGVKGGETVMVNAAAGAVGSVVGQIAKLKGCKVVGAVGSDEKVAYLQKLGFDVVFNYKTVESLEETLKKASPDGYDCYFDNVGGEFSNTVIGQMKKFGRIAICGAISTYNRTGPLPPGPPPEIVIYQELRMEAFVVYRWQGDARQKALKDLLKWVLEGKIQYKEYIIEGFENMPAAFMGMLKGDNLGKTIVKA", "outline": "(§1)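 Probe: STP-alkyne, 0.1 mM, 1 h RT, after fragment pretreatment of lysate (esters 50 μM; guanidinylators 100 μM). Tags: light = compound, heavy = DMSO, via CuAAC. Replicates averaged if SD <60% of mean; otherwise lowest ratio used when any R <4.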"}, "[2]": {"target": "T2, UBA2 SUMO-activating enzyme subunit 2 (Homo sapiens, UniProt Q9UBT2)", "T2 construct": "endogenous in cells; host or cells: MDA-MB-231 (soluble fraction of lysate)", "T2 sequence (Q9UBT2 1-640)": "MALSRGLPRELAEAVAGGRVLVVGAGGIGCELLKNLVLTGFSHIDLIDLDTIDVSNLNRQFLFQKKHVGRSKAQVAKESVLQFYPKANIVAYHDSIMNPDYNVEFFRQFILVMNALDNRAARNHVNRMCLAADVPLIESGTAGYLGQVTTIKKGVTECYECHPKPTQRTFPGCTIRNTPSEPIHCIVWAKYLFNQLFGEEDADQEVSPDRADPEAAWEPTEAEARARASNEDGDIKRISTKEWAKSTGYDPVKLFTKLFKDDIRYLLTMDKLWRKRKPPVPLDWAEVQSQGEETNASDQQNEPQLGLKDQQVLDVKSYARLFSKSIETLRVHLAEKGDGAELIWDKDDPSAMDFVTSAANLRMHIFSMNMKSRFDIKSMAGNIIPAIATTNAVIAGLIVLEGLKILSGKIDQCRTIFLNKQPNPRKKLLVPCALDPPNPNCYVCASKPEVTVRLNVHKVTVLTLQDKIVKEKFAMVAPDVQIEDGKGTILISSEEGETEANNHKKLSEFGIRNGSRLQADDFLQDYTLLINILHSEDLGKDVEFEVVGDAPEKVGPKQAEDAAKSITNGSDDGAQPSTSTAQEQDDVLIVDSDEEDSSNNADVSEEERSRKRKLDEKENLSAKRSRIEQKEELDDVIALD", "T2 sequence (Q9UBE0 1-346 partner)": "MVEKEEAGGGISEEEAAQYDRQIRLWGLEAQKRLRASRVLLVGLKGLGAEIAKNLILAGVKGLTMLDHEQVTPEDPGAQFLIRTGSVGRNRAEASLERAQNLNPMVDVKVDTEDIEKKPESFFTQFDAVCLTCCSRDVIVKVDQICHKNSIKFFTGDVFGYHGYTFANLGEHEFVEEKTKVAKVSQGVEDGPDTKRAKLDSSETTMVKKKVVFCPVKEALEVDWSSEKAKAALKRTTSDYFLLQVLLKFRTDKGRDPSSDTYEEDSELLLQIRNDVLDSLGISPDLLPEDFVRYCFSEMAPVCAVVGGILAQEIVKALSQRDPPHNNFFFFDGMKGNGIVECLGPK", "conditions": "50 uM, in vitro", "outline": "as §1"}, "[3]": {"target": "T3, MAP4K5 Mitogen-activated protein kinase kinase kinase kinase 5 (Homo sapiens, UniProt Q9Y4K4)", "T3 construct": "endogenous in cells; host or cells: MDA-MB-231 (soluble fraction of lysate)", "T3 sequence (Q9Y4K4 whole entry)": "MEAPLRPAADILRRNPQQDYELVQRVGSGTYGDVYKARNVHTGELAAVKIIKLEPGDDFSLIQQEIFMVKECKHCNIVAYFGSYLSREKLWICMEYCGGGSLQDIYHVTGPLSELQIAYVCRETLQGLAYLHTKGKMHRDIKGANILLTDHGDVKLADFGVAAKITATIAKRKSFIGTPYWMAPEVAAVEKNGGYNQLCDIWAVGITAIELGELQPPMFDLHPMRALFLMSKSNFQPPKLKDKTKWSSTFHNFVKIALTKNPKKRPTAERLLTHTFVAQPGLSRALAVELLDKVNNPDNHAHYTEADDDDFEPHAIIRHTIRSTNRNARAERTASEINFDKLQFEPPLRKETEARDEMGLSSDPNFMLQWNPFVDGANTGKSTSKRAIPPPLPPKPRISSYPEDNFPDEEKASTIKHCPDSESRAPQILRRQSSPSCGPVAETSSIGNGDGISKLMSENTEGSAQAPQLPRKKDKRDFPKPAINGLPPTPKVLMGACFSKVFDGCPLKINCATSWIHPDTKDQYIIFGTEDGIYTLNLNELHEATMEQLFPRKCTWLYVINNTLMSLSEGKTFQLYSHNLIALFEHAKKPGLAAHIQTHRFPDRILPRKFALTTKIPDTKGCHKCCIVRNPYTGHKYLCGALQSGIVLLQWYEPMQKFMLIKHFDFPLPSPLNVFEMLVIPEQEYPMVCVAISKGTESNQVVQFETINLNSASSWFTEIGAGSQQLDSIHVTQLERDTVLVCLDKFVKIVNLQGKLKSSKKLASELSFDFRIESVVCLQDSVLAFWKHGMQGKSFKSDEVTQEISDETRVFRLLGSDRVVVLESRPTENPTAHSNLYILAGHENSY", "conditions": "50 uM, 231 sol, in vitro", "outline": "as §1"}, "[4]": {"target": "T4, REEP5 Receptor expression-enhancing protein 5 (Homo sapiens, UniProt Q00765)", "T4 construct": "isoTOP-ABPP experiments performed in cell lysates (in vitro); endogenous in cells; host or cells: soluble proteome of human cancer cell lines (MDA-MB-231, Ramos, Jurkat)", "T4 sequence (Q00765 whole entry)": "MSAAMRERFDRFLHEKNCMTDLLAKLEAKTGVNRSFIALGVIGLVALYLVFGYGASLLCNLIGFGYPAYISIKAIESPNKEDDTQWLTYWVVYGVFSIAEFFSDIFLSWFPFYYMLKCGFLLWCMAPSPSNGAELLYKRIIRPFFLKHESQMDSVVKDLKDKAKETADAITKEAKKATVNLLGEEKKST", "outline": "as §1"}},
  "data": [
    {"smiles": "O=C(Oc1c(F)c(F)c(F)c(F)c1F)C(c1ccccc1)c1ccccc1", "note": "[fragment 20, Pentafluorophenyl 2,2-diphenylacetate]", "values": [
      {"measurement": "R value (DMSO/fragment) for probe 1 labeling", "setting": "[1]; Q14914_K194, 50 uM, 231 sol, in vitro", "value": 1.6},
      {"measurement": "R value (DMSO/fragment) for probe 1 labeling", "setting": "[2]; Q9UBT2_K409, 231 sol", "value": 4.1}
    ]},
    {"smiles": "O=C(Oc1c(F)c(F)c(F)c(F)c1F)c1cc(C(F)(F)F)cc(C(F)(F)F)c1", "note": "[fragment 21, Pentafluorophenyl 3,5-bis(trifluoromethyl)benzoate]", "values": [
      {"measurement": "R value (DMSO/fragment) for probe 1 labeling", "setting": "[3]; Q9Y4K4_K49", "value": 0.6}
    ]},
    {"smiles": "Cn1cc(CC(=O)Oc2c(F)c(F)c(F)c(F)c2F)c2ccccc21", "note": "[fragment 22, Pentafluorophenyl 2-(1-methyl-1H-indol-3-yl)acetate]", "values": [
      {"measurement": "R value (DMSO/fragment) for probe 1 labeling", "setting": "[4]; Q00765_K147, 50 uM, 231 sol, in vitro", "value": 4.8}
    ]},
    {"smiles": "O=C(CCc1cn(-c2ccccc2)nc1-c1ccccc1)Oc1ccc([N+](=O)[O-])cc1[N+](=O)[O-]", "note": "[fragment 29, 2,4-Dinitrophenyl 3-(1,3-diphenyl-1H-pyrazol-4-yl)propanoate]", "values": [
      {"measurement": "isoTOP-ABPP reactivity ratio at lysine Q9Y4K4_K49", "setting": "[3]", "value": 1.8}
    ]},
    {"smiles": "O=C(Oc1ccc([N+](=O)[O-])cc1[N+](=O)[O-])C(c1ccccc1)c1ccccc1", "note": "[fragment 30, 2,4-Dinitrophenyl 2,2-diphenylacetate]", "values": [
      {"measurement": "isoTOP-ABPP reactivity ratio at lysine Q9UBT2_K409", "setting": "[2]; 231 sol", "value": 7.3},
      {"measurement": "isoTOP-ABPP reactivity ratio at lysine Q00765_K147", "setting": "[4]; 50 uM, 231 sol, in vitro", "value": 20.0}
    ]},
    {"smiles": "O=C(Oc1ccc([N+](=O)[O-])cc1[N+](=O)[O-])c1cc(C(F)(F)F)cc(C(F)(F)F)c1", "note": "[fragment 31, 2,4-Dinitrophenyl 3,5-bis(trifluoromethyl)benzoate]", "values": [
      {"measurement": "isoTOP-ABPP reactivity ratio at lysine Q9UBT2_K409", "setting": "[2]; 231 sol", "value": 6.2},
      {"measurement": "isoTOP-ABPP reactivity ratio at lysine Q00765_K147", "setting": "[4]; 50 uM, 231 sol, in vitro", "value": 3.0}
    ]},
    {"smiles": "Cn1cc(CC(=O)Oc2ccc([N+](=O)[O-])cc2[N+](=O)[O-])c2ccccc21", "note": "[fragment 32, 2,4-Dinitrophenyl 2-(1-methyl-1H-indol-3-yl)acetate]", "values": [
      {"measurement": "isoTOP-ABPP reactivity ratio at lysine Q9Y4K4_K49", "setting": "[3]", "value": 5.3}
    ]},
    {"smiles": "O=C(CCc1coc2cc(F)ccc2c1=O)Oc1ccc([N+](=O)[O-])cc1[N+](=O)[O-]", "note": "[fragment 36, 2,4-Dinitrophenyl 3-(7-fluoro-4-oxo-4H-chromen-3-yl)propanoate]", "values": [
      {"measurement": "isoTOP-ABPP ratio (R) at liganded lysine Q14914_K194", "setting": "[1]; 50 uM, in vitro, sol, 231", "value": 1.7},
      {"measurement": "isoTOP-ABPP ratio (R) at liganded lysine Q9UBT2_K409", "setting": "[2]; sol, 231", "value": 3.6}
    ]},
    {"smiles": "O=C(Oc1ccc([N+](=O)[O-])cc1[N+](=O)[O-])c1ccc(Oc2ccccc2)cc1", "note": "[fragment 39, 2,4-Dinitrophenyl 4-phenoxybenzoate]", "values": [
      {"measurement": "isoTOP-ABPP ratio (R) at liganded lysine Q00765_K147", "setting": "[4]; 50 uM, in vitro, sol, 231", "value": 1.2}
    ]},
    {"smiles": "O=C(CCc1ccc2c(c1)OCO2)Oc1ccc([N+](=O)[O-])cc1[N+](=O)[O-]", "note": "[fragment 45, 2,4-Dinitrophenyl 3-(benzo[d][1,3]dioxol-5-yl)propanoate]", "values": [
      {"measurement": "isoTOP-ABPP ratio, lysine Q14914_K194", "setting": "[1]; 50 uM_231_sol_in vitro", "value": 5.5},
      {"measurement": "isoTOP-ABPP ratio, lysine Q00765_K147", "setting": "[4]; 50 uM_231_sol_in vitro", "value": 2.7}
    ]},
    {"smiles": "COC(=O)NC(=NC(=O)OCC1c2ccccc2-c2ccccc21)n1cccn1", "note": "[fragment 49, N-Methoxycarbonyl-N′-9-fluorenylmethoxycarbonyl-pyrazole-1-carboxamidine]", "values": [
      {"measurement": "isoTOP-ABPP ratio, lysine Q14914_K194", "setting": "[1]; 100 uM_231_sol_in vitro", "value": 1.3}
    ]},
    {"smiles": "CC(C)(C)OC(=O)N=C(NC(=O)OC(C)(C)C)n1cccn1", "note": "[fragment 50, reference compound]", "values": [
      {"measurement": "isoTOP-ABPP ratio, lysine Q14914_K194", "setting": "[1]; 100 uM_231_sol_in vitro", "value": 1.2}
    ]}
  ]
}
